Measurements from PubChem BioAssay (NCI).
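Briefly, cells in 96-well plates were exposed to five compound concentrations for 48 h, and endpoints were estimated by linear interpolation. GI50: concentration for 50% inhibition of growth. TGI: concentration producing complete growth inhibition.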

Assays:
Assay in all cases: NCI anticancer screen, dose series, 48 h
HCC-2998 colon = system: HCC-2998 colon
SR leukemia = system: SR leukemia
SK-OV-3 ovarian = system: SK-OV-3 ovarian
PC-3 prostate = system: PC-3 prostate
NCI-H522 lung = system: NCI-H522 lung
U251 CNS = system: U251 CNS
RXF 393 renal = system: RXF 393 renal
MDA-MB-231 breast = system: MDA-MB-231 breast
MALME-3M melanoma = system: MALME-3M melanoma
SK-MEL-28 melanoma = system: SK-MEL-28 melanoma
LOX IMVI melanoma = system: LOX IMVI melanoma
SF-539 CNS = system: SF-539 CNS
M14 melanoma = system: M14 melanoma
HOP-92 NSCLC = system: HOP-92 NSCLC
BT-549 breast = system: BT-549 breast
UACC-257 melanoma = system: UACC-257 melanoma
HCT-15 colon = system: HCT-15 colon
COLO 205 colon = system: COLO 205 colon
OVCAR-8 ovarian = system: OVCAR-8 ovarian
SF-268 CNS = system: SF-268 CNS
SNB-75 CNS = system: SNB-75 CNS
RPMI-8226 leukemia = system: RPMI-8226 leukemia
MOLT-4 leukemia = system: MOLT-4 leukemia
KM12 colon = system: KM12 colon
IGROV1 ovarian = system: IGROV1 ovarian
NCI-H23 lung = system: NCI-H23 lung
OVCAR-3 ovarian = system: OVCAR-3 ovarian
TK-10 renal = system: TK-10 renal
ACHN renal = system: ACHN renal
K-562 leukemia = system: K-562 leukemia
HL-60(TB) leukemia = system: HL-60(TB) leukemia
HOP-62 NSCLC = system: HOP-62 NSCLC
DU-145 prostate = system: DU-145 prostate
SK-MEL-5 melanoma = system: SK-MEL-5 melanoma
UACC-62 melanoma = system: UACC-62 melanoma
MDA-MB-435 = system: MDA-MB-435
HS 578T breast = system: HS 578T breast
UO-31 renal = system: UO-31 renal
OVCAR-4 ovarian = system: OVCAR-4 ovarian
CCRF-CEM leukemia = system: CCRF-CEM leukemia
CAKI-1 renal = system: CAKI-1 renal
SK-MEL-2 melanoma = system: SK-MEL-2 melanoma
786-0 renal = system: 786-0 renal
SN12C renal = system: SN12C renal
MCF7 breast = system: MCF7 breast
OVCAR-5 ovarian = system: OVCAR-5 ovarian
SNB-19 CNS = system: SNB-19 CNS
HT29 colon = system: HT29 colon
SW-620 colon = system: SW-620 colon
T-47D breast = system: T-47D breast
NCI-H460 lung = system: NCI-H460 lung
SF-295 CNS = system: SF-295 CNS
NCI/ADR-RES ovarian = system: NCI/ADR-RES ovarian
EKVX NSCLC = system: EKVX NSCLC

Work on `COc1cnc2c(c1)C(=O)c1c-2n(CCCNCCN2CCOCC2)c(=O)c2cc([N+](=O)[O-])ccc12` yielded a GI50 (HCC-2998 colon) of 303 nM, a TGI (HCC-2998 colon) of 1540 nM and a GI50 (SR leukemia) of 15.1 nM. It also gave a TGI (SR leukemia) of 1020 nM, a GI50 (SK-OV-3 ovarian) of 142 nM and a TGI (SK-OV-3 ovarian) of 1620 nM. The GI50 (PC-3 prostate) was 568 nM, the TGI (PC-3 prostate) was 13000 nM and the GI50 (NCI-H522 lung) was 78.7 nM. For the same compound, the TGI (NCI-H522 lung) was 1380 nM, the GI50 (U251 CNS) was 78.3 nM and the TGI (U251 CNS) was 1100 nM. It also gave a GI50 (RXF 393 renal) of 387 nM, a TGI (RXF 393 renal) of 1930 nM and a GI50 (MDA-MB-231 breast) of 630 nM. It also gave a TGI (MDA-MB-231 breast) of 2650 nM, a GI50 (MALME-3M melanoma) of 340 nM and a TGI (MALME-3M melanoma) of 2860 nM. The GI50 (SK-MEL-28 melanoma) was 1130 nM, the TGI (SK-MEL-28 melanoma) was 14300 nM and the GI50 (LOX IMVI melanoma) was 41.3 nM. It also gave a TGI (LOX IMVI melanoma) of 216 nM, a GI50 (SF-539 CNS) of 311 nM and a TGI (SF-539 CNS) of 1320 nM. For the same compound, the GI50 (M14 melanoma) was 68.9 nM, the TGI (M14 melanoma) was 1520 nM and the GI50 (HOP-92 NSCLC) was 866 nM. It also gave a TGI (HOP-92 NSCLC) of 22800 nM, a GI50 (BT-549 breast) of 286 nM and a TGI (BT-549 breast) of 4130 nM. For the same compound, the GI50 (UACC-257 melanoma) was 586 nM, the TGI (UACC-257 melanoma) was 13300 nM and the GI50 (HCT-15 colon) was 297 nM. For the same compound, the TGI (HCT-15 colon) was 2580 nM, the GI50 (COLO 205 colon) was 297 nM and the TGI (COLO 205 colon) was 3070 nM. The GI50 (OVCAR-8 ovarian) was 174 nM, the TGI (OVCAR-8 ovarian) was 10200 nM and the GI50 (SF-268 CNS) was 81.8 nM. The TGI (SF-268 CNS) was 13300 nM, the GI50 (SNB-75 CNS) was 265 nM and the TGI (SNB-75 CNS) was 10700 nM. For the same compound, the GI50 (RPMI-8226 leukemia) was 171 nM, the TGI (RPMI-8226 leukemia) was 1550 nM and the GI50 (MOLT-4 leukemia) was 33.5 nM. It also gave a TGI (MOLT-4 leukemia) of 269 nM, a GI50 (KM12 colon) of 399 nM and a TGI (KM12 colon) of 3570 nM. For the same compound, the GI50 (IGROV1 ovarian) was 422 nM, the TGI (IGROV1 ovarian) was 6760 nM and the GI50 (NCI-H23 lung) was 152 nM. For the same compound, the TGI (NCI-H23 lung) was 1610 nM, the GI50 (OVCAR-3 ovarian) was 315 nM and the TGI (OVCAR-3 ovarian) was 1710 nM. It also gave a GI50 (TK-10 renal) of 730 nM, a TGI (TK-10 renal) of 3170 nM and a GI50 (ACHN renal) of 36.5 nM. For the same compound, the TGI (ACHN renal) was 201 nM, the GI50 (K-562 leukemia) was 226 nM and the TGI (K-562 leukemia) was 2590 nM. The GI50 (HL-60(TB) leukemia) was 104 nM, the TGI (HL-60(TB) leukemia) was 818 nM and the GI50 (HOP-62 NSCLC) was 150 nM. It also gave a TGI (HOP-62 NSCLC) of 1080 nM, a GI50 (DU-145 prostate) of 60.8 nM and a TGI (DU-145 prostate) of 1120 nM. It also gave a GI50 (SK-MEL-5 melanoma) of 263 nM, a TGI (SK-MEL-5 melanoma) of 1260 nM and a GI50 (UACC-62 melanoma) of 43.8 nM. It also gave a TGI (UACC-62 melanoma) of 434 nM, a GI50 (MDA-MB-435) of 420 nM and a TGI (MDA-MB-435) of 15400 nM. It also gave a GI50 (HS 578T breast) of 3850 nM, a TGI (HS 578T breast) of 26900 nM and a GI50 (UO-31 renal) of 52.3 nM. For the same compound, the GI50 (OVCAR-4 ovarian) was 334 nM, the TGI (OVCAR-4 ovarian) was 3440 nM and the GI50 (CCRF-CEM leukemia) was 45.3 nM. It also gave a TGI (CCRF-CEM leukemia) of 3200 nM, a GI50 (CAKI-1 renal) of 43.3 nM and a TGI (CAKI-1 renal) of 7310 nM. It also gave a GI50 (SK-MEL-2 melanoma) of 1590 nM, a TGI (SK-MEL-2 melanoma) of 14400 nM and a GI50 (786-0 renal) of 224 nM. It also gave a TGI (786-0 renal) of 765 nM, a GI50 (SN12C renal) of 79.5 nM and a TGI (SN12C renal) of 4590 nM. It also gave a GI50 (MCF7 breast) of 32.3 nM, a TGI (MCF7 breast) of 10200 nM and a GI50 (OVCAR-5 ovarian) of 448 nM. It also gave a TGI (OVCAR-5 ovarian) of 3870 nM, a GI50 (SNB-19 CNS) of 110 nM and a TGI (SNB-19 CNS) of 5200 nM. The GI50 (HT29 colon) was 154 nM, the TGI (HT29 colon) was 1310 nM and the GI50 (SW-620 colon) was 128 nM. It also gave a TGI (SW-620 colon) of 8680 nM, a GI50 (T-47D breast) of 110 nM and a TGI (T-47D breast) of 18100 nM. It also gave a GI50 (NCI-H460 lung) of 41.1 nM, a TGI (NCI-H460 lung) of 1030 nM and a GI50 (SF-295 CNS) of 73.5 nM. It also gave a TGI (SF-295 CNS) of 964 nM, a GI50 (NCI/ADR-RES ovarian) of 125 nM and a TGI (NCI/ADR-RES ovarian) of 1450 nM. The GI50 (EKVX NSCLC) was 446 nM and the TGI (EKVX NSCLC) was 3500 nM.
